Laboratory results: patent US20040019092A1, “Non-peptide somatostatin receptor ligands” (priority 2001, published 2004)
Several values for one entry are separate records, joined by “and”; a condition that tells them apart may be missing. Identical values can stand only once.

How the values were obtained:
[1] = test system: SRIF receptors ([^125I]SRIF-28 binding sites); assay: Ex-vivo [^125I]Tyr^26-SRIF-28 binding in rat cortex and hippocampus after s.c. dosing; set-up: species or system Wistar rats; conditions: 60 min
Protocol: Ex-vivo binding was used to determine to whether compound 14 (a potent sst2 receptor selective hydantoin) when applied peripherally to rates can cross the blood brain barrier, as robust behavioral models are not fully characterized and blood-brain penetration models are not routinely available. […] The rats were given saline or drug sub-cutaneously at the indicated dose (in saline) and killed 60 minutes after application with CO2. The brain was removed and placed on ice; the cerebral cortex and hippocampus were dissected out and weighted. […] The homogenate was stored on ice and used immediately or deep frozen (-70° C.) until used (1-3 days). […] The tables list the effects of compound 14 on cortex (Table 6) and hippocampus (Table 7) binding at the doses and times indicated (see also FIGS. 3 and 4). TB=total binding, NS=non specific binding, SB=specific binding. The values are indicated in cpm for individual animals, mean, n=number of animals, sem=standard error of the mean; percent=% specific binding remaining following treatment compared to controls.

[2] = target: sst2 (Homo sapiens, UniProt P30874); assay: sst2 cyclase (second messenger studies); type: cell-based
Chain of sst2 (P30874 whole entry, species assumed): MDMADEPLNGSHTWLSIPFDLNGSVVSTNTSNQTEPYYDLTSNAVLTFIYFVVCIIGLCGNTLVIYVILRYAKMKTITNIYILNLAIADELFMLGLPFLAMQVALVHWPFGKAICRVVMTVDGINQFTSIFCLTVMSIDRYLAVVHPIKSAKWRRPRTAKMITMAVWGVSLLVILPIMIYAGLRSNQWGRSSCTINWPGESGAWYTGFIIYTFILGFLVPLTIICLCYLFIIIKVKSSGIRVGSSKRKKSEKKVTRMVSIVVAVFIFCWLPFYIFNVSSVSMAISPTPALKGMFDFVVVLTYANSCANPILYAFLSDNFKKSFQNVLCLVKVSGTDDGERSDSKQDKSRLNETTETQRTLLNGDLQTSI
Source text: In particular the compounds of the invention bind to somatostatin receptors. More particularly they are selective agonists at Somatostatin sst2 receptors, as determined in radioligand binding and second messenger studies (see for example K. Kaupmann et al., FEBS LETTERS 1993, 331, […]).

[3] = Plasma protein binding, equilibrium dialysis, rat plasma; type: in vitro ADME
Protocol: In vitro blood distribution and plasma protein binding. For blood distribution studies, fresh, heparinized rat blood (n=3) was spiked with [^14C]-42 to achieve the final concentrations of 5, 50, 500 and 5000 ng/mL. After a 30-minutes incubation at 4° C., 22° C. and 37° C., the samples were centrifuged (1600×g, 10 minutes, at the incubation temperature) to get plasma. The fraction free of 42 in plasma of rat and human was determined by equilibrium dialysis. Phosphate buffer was spiked with [^14C]-42 (50, 500, 5000 ng/mL) and dialyzed versus blank rat and human plasma at 37° C. for 2 hours. The radioactivity was determined in spiked blood samples, in plasma obtained after centrifugation and in both compartments after dialysis.

[4] = cortex, SRIF-28 +MgCl-2, 0.3 mg/kg s.c.
[5] = cortex, SRIF-28 +MgCl-2, 1 mg/kg s.c.
[6] = cortex, SRIF-28 +MgCl-2, 3 mg/kg s.c.
[7] = cortex, SRIF-28 +MgCl-2, 10 mg/kg s.c.
[8] = hippocampus, SRIF-28 +MgCl-2, 0.3 mg/kg s.c.
[9] = hippocampus, SRIF-28 +MgCl-2, 1 mg/kg s.c.
[10] = hippocampus, SRIF-28 +MgCl-2, 3 mg/kg s.c.
[11] = hippocampus, SRIF-28 +MgCl-2, 10 mg/kg s.c.

Cc1cccc2c(CC3C(=O)N(CCCCCN)C(=O)N3S(=O)(=O)c3ccc(Oc4ccc(O)cc4)c(C#N)c3)c[nH]c12 (centres unmarked) [Compound 14]
NS non specific binding, individual animals [1, 4]: 3058 cpm and 2970 cpm and 3027 cpm | NS non specific binding, mean [1, 4]: 3018 cpm | SB specific binding, individual animals [1, 4]: 24318 cpm and 23238 cpm and 23669 cpm | SB specific binding, mean [1, 4]: 23742 cpm | TB total binding, individual animals [1, 4]: 27376 cpm and 26208 cpm and 26696 cpm | TB total binding, mean [1, 4]: 26760 cpm | percent specific binding remaining compared to controls [1, 4]: 89% | NS non specific binding, individual animals [1, 5]: 2915 cpm and 3036 cpm and 3191 cpm | NS non specific binding, mean [1, 5]: 3047 cpm | SB specific binding, individual animals [1, 5]: 21767 cpm and 23930 cpm and 23905 cpm | SB specific binding, mean [1, 5]: 23201 cpm | TB total binding, individual animals [1, 5]: 24682 cpm and 26966 cpm and 27096 cpm | TB total binding, mean [1, 5]: 26248 cpm | percent specific binding remaining compared to controls [1, 5]: 95% | NS non specific binding, individual animals [1, 6]: 2980 cpm and 3016 cpm and 3116 cpm | NS non specific binding, mean [1, 6]: 3037 cpm | SB specific binding, individual animals [1, 6]: 22191 cpm and 21992 cpm and 22578 cpm | SB specific binding, mean [1, 6]: 22254 cpm | TB total binding, individual animals [1, 6]: 25171 cpm and 25008 cpm and 25694 cpm | TB total binding, mean [1, 6]: 25291 cpm | percent specific binding remaining compared to controls [1, 6]: 91% | NS non specific binding, individual animals [1, 7]: 3070 cpm and 3015 cpm and 3305 cpm | NS non specific binding, mean [1, 7]: 3130 cpm | SB specific binding, individual animals [1, 7]: 22730 cpm and 21395 cpm and 23605 cpm | SB specific binding, mean [1, 7]: 22577 cpm | TB total binding, individual animals [1, 7]: 25800 cpm and 24410 cpm and 26910 cpm | TB total binding, mean [1, 7]: 25707 cpm | percent specific binding remaining compared to controls [1, 7]: 93% | NS non specific binding, individual animals [1, 8]: 2936 cpm and 2874 cpm and 2753 cpm | NS non specific binding, mean [1, 8]: 2854 cpm | SB specific binding, individual animals [1, 8]: 18219 cpm and 18124 cpm and 19319 cpm | SB specific binding, mean [1, 8]: 18554 cpm | TB total binding, individual animals [1, 8]: 21155 cpm and 20998 cpm and 22072 cpm | TB total binding, mean [1, 8]: 21408 cpm | percent specific binding remaining compared to controls [1, 8]: 112% | NS non specific binding, individual animals [1, 9]: 2754 cpm and 2528 cpm and 2621 cpm | NS non specific binding, mean [1, 9]: 2634 cpm | SB specific binding, individual animals [1, 9]: 17055 cpm and 18516 cpm and 18145 cpm | SB specific binding, mean [1, 9]: 17905 cpm | TB total binding, individual animals [1, 9]: 19809 cpm and 21044 cpm and 20766 cpm | TB total binding, mean [1, 9]: 20540 cpm | percent specific binding remaining compared to controls [1, 9]: 108% | NS non specific binding, individual animals [1, 10]: 2532 cpm and 2841 cpm and 2786 cpm | NS non specific binding, mean [1, 10]: 2720 cpm | SB specific binding, individual animals [1, 10]: 15758 cpm and 14336 cpm and 15162 cpm | SB specific binding, mean [1, 10]: 15085 cpm | TB total binding, individual animals [1, 10]: 18290 cpm and 17117 cpm and 17948 cpm | TB total binding, mean [1, 10]: 17805 cpm | percent specific binding remaining compared to controls [1, 10]: 91% | NS non specific binding, individual animals [1, 11]: 2587 cpm and 2850 cpm and 2711 cpm | NS non specific binding, mean [1, 11]: 2716 cpm | SB specific binding, individual animals [1, 11]: 15809 cpm and 14387 cpm and 13715 cpm | SB specific binding, mean [1, 11]: 14637 cpm | TB total binding, individual animals [1, 11]: 18398 cpm and 17237 cpm and 18426 cpm | TB total binding, mean [1, 11]: 17353 cpm | percent specific binding remaining compared to controls [1, 11]: 88% | sst2 cyclase pEC50 [2]: 9.32

N#Cc1cc(S(=O)(=O)N2C(=O)N(CCCCCN)C(=O)C2Cc2c[nH]c3ccccc23)ccc1Oc1ccc(N)cc1 (centres unmarked) [Compound 42]
binding to plasma proteins [3]: 90% | fraction free in rat plasma ([3]; 50-5000 ng/mL, 37° C.): 10-12%
